Measured values taken from patent US7767417B2, “Prenyl-electrostatic switch, and methods of use” (New York University, priority 2004, dated 2010).

Experiments:
[1] = test system: GFP-K-Ras; test: Live-cell imaging of GFP-K-Ras translocation from plasma membrane to internal membranes; assay type: cell-based, human; settings: for effect of inhibitor pretreatment on stimulated K-Ras translocation: 100 nM Ro 31-8220 or 15 μg/ml W-13, 10 min prior to stimulation with bryostatin-1 or PMA+Iono
Protocol: COS-1, HeLa, and MDCK cells were maintained in 5% CO2 in Dulbecco's Modified Eagle Medium (“DMEM”) supplemented with 4 mM 1-glutamine, 1.5 g/L sodium bicarbonate, 4.5 g/L glucose, and 10% fetal bovine serum (“FBS”) (Cellgro®). MDCK cells stably expressing GFP-K-Ras or GFP-H-Ras were selected in G418 and sorted by FACS to yield cell lines expressing relatively low levels of the fluorescent Ras proteins (1-3 fold endogenous by immunoblots). NIH 3T3 cells were maintained in 10% CO2 in DMEM supplemented with 4 mM 1-glutamine, 1.5 g/L sodium bicarbonate, 4.5 g/L glucose, and 10% calf serum (Colorado Serum Co., Denver, Colo.). Jurkat T cells were maintained in 5% CO2 in RPMI containing 10% FBS. Cells to be examined by fluorescence microscopy were seeded at 2×10^5 per plate into 35 mm dishes containing a glass coverslip-sealed 15 mm cutout (MatTek, Ashland, Mass.) and transfected the next day using Lipofectamine (Invitrogen, Carlsbad, Calif.; NIH 3T3), Lipofectamine 2000 (Invitrogen, Carlsbad, Calif.; COS-1, HeLa, MDCK), or DMRIE (Invitrogen, Carlsbad, Calif.; Jurkat), according to the manufacturers' instructions. To ensure co-transfection of untagged cDNAs and fluorescent constructs, a DNA ratio of at least 5:1 (untagged:fluorescent) was used.
(§1) Cells were stimulated while under continuous observation by adding 100 nM bryostatin-1 (Biomol), 100 nM PMA with or without 500 ng/ml lonomycin, or 5 ng/ml anti-CD3 to 35 mm MatTek plates maintained at 37° C. using a PDMI-2 microincubator (Harvard Apparatus, Holliston, Mass.). Treatment of cells with 100 nM Ro 31-8220 (Biomol, Plymouth Meeting, Pa.) or 15 μg/ml W-13 Hydrochloride (EMD Biosciences, San Diego, Calif.) was initiated 10 min prior to stimulations. Where indicated, 25 pM MitoTracker Red CMXRos (Molecular Probes, Eugene, Oreg.) was added 10 min prior to stimulation. Living cells were imaged with a Zeiss 510 inverted laser scanning confocal microscope (“LSM”). A minimum of five […] Z slices were acquired for each cell at each time point and representative images were chosen to display both plasma membrane and endomembranes. Fluorescence resonance energy transfer (“FRET”) on mitochondria between CFP-K-Ras and YFP-Bcl-XL was detected by bleaching the acceptor (YFP-Bcl-XL) on individual mitochondria and measuring the increase in CFP emission intensity as quenching was released. FRET efficiency was calculated as [ICFP(post-bleach)−ICFP(pre-bleach)]/ICFP(post-bleach). TIFF images were processed with Adobe Photoshop 7.0.

[2] = test system: K-Ras; test: Metabolic labeling with [32P]orthophosphate of COS-1 cells expressing K-Ras constructs; assay type: cell-based, human; settings: 100 nM bryostatin-1 for 20 min
Protocol: Twenty-four hours after transfection with various K-Ras constructs, COS-1 cells were pre-incubated at 37° C. for 4 hours in phosphate-free DMEM containing 10% dialyzed fetal calf serum (“FCS”). The medium was then replaced with phosphate-free DMEM containing 2 mCi of [^32P]orthophosphate. After 6 hours of labeling, the cells were stimulated with 100 nM bryostatin-1 for 20 min at 37° C. Jurkat cells were rinsed three times with prewarmed phosphate-free DMEM, and then incubated at 37° C. for 6 hours in phosphate-free DMEM containing 10% FBS (3:1 undialyzed:dialyzed) and 0.5 mCi/ml [^32P]orthophosphate. After incubation, the ^32P-labeled cells were rinsed with prewarmed phosphate-free DMEM, and then stimulated with either anti-CD3 (10 μg/ml) or vehicle control for 30 min at 37° C. Both types of cells were then lysed in RIPA buffer containing protease inhibitors (Roche, Basel, Switzerland) and 10 μM microcystin and 5 mM NaF. K-Ras was immunoprecipitated using agarose conjugated with Y13-259 monoclonal anti-Ras antibody (Santa Cruz Biotechnology, Inc., Santa Cruz, Calif.), analyzed by SDS-PAGE and visualized by phosphorimager.

[3] = test system: endogenous Ras; test: Anti-Ras immunogold electron microscopy of Jurkat T cells; assay type: cell-based
Protocol: Jurkat cells (in suspension) were treated with 100 nM bryostatin-1 or vehicle (dimethyl sulfoxide (“DMSO”)) for 30 minutes at 37° C. and then fixed with 2% formaldehyde and 0.2% glutaraldehyde in 0.1 M sodium phosphate buffer, pH 7.4. After washing in buffer, the cells were pelleted by centrifugation, embedded in 10% gelatin, cooled in ice, and cut into 1-mm^3 blocks in the cold room. The blocks were infused with 2.3 M sucrose at 4° C. for at least 2 hours, frozen in liquid nitrogen, and stored until cryo-ultramicrotomy. 100-nm-thick section were cut at −120° C. using an Ultracut T/FCS (Leica) equipped with an antistatic device (Diatome) and a diamond knife (Drukker). Ultrathin sections were picked up in a mix of 1.8% methylcellulose and 2.3 M sucrose (1:1) (Liou et al., “Improving Structural Integrity of Cryosections for Immunogold Labeling,” Histochemistry and Cell Biology 106:41-58 (1996), which is hereby incorporated by reference in its entirety). Cryosections were collected on formvar-coated copper grids and incubated with Ras10 monoclonal antibody (Upstate, Charlottesville, Va.) followed by rabbit anti-mouse antibodies and then protein A gold (Slot et al., “A New Method of Preparing Gold Probes for Multiple-Labeling Cytochemistry,” Eur. J. Cell. Biol. 38:87-93 (1985), which is hereby incorporated by reference in its entirety). After labeling, the sections were treated with 1% glutaraldehyde, counterstained with uranyl acetate, and embedded in methyl cellulose-uranyl acetate (Slot et al., “Immuno-Localization of the Insulin Regulatable Glucose Transporter in Brown Adipose Tissue of the Rat,” J. Cell. Biol. 113:123-135 (1991), which is hereby incorporated by reference in its entirety). Images were acquired with a JEOL electron microscope JEM-1200 EX II at 80 kV.

[4] = test system: NIH3T3 cells transformed with K-Ras12V or K-Ras12V181A; test: Apoptosis of K-Ras transformed fibroblasts; assay type: cell-based
From the text: To confirm that K-Ras12V phosphorylated on S181, like phosphomimetic K-Ras12V181E, is pro-apoptotic, the capacity of PKC agonists to induce apoptosis of K-Ras transformed fibroblasts was examined. […] Thus, the sensitization to PKC-mediated apoptosis afforded by K-Ras transformation can be attributed to phosphorylation at S181.

[5] = test system: K-Ras12V and Bcl-XL; test: Colocalization and FRET between K-Ras12V and Bcl-XL on mitochondria; assay type: cell-based, human
Protocol: as §1

[6] = test system: NIH 3T3 cells stably transfected with K-Ras12V or K-Ras12V181A; test: Soft agar assay; assay type: cell-based; settings: two weeks
Protocol: NIH 3T3 cells stably transfected with pCGN-hyg, or the same vector encoding K-Ras12V or K-Ras12V 181 A were plated as single cell suspensions (2×10^4 cells/35-mm well) in 0.4% agar over a bottom layer of 0.6% agar, both containing DMSO vehicle or various concentrations of bryostatin-1. After two weeks, the percentage of plated cells that formed colonies (>5 cell diameters across) was determined.

[7] = test system: K-Ras12V-dependent tumors; test: Tumor growth assay in nude mice; assay type: in vivo, athymic nude BALB/c mice; settings: intraperitoneal 25 μg/kg daily for 3 days
Protocol: NIH 3T3 cells stably transfected as per the soft agar assays were injected (5×10^5 cells) subcutaneously into the flanks of 4-6 week old athymic nude BALB/c mice. After formation of palpable tumors, mice were treated daily for 3 days with intraperitoneal DMSO vehicle or bryostatin-1 (25 μg/kg). Tumor volume was measured daily and differences in growth rates were evaluated for statistical significance by ANOVA.

[8] = test system: a variety of tumors; settings: phase I and II trials, cited from earlier work
[9] = 100 nM bryostatin-1, living cells

Question: For CCC/C=C/C=C/C(=O)O[C@H]1/C(=C/C(=O)OC)C[C@H]2C[C@H]([C@@H](C)O)OC(=O)C[C@H](O)C[C@@H]3C[C@H](OC(C)=O)C(C)(C)[C@](O)(C[C@@H]4C/C(=C/C(=O)OC)C[C@H](/C=C/C(C)(C)[C@]1(O)O2)O4)O3 [bryostatin-1], which “onset of translocation of GFP-K-Ras from the plasma membrane to intracellular membranes” value [1, 9] is on record?
Answer: < 1 min

Question: What about the “time to maximal translocation of GFP-K-Ras from the plasma membrane to intracellular membranes” value [1, 9] of the same molecule?
Answer: 3 min

Question: What about the “reversibility of effect on K-Ras localization” value ([1]; COS-1 cells, GFP-K-Ras12V, 3 min treatment, 10 min washout) of the same molecule?
Answer: reversible

Question: What about the “association of GFP-K-Ras / GFP-H-Ras with mitochondria” value ([1]; MDCK cell lines stably expressing at endogenous levels, MitoTracker Red) of the same molecule?
Answer: stimulated rapid association of GFP-K-Ras but not GFP-H-Ras with mitochondria

Question: What about the “phosphorylation of K-Ras (32P incorporation)” value [2] of the same molecule?
Answer: induced phosphorylation

Question: What about the “10 nm gold particles per area of cytoplasm (excluding plasma membrane)” value ([3]; 100 nM bryostatin-1 30 min, untreated 6.4±0.5) of the same molecule?
Answer: 31.0±1.1 gold particles/μm^2

Question: What about the “gold particles associated with mitochondria” value ([3]; bryostatin-1 treated) of the same molecule?
Answer: 49%

Question: What about the “mitochondria associated gold particles located within 30 nm of the outer mitochondrial membrane” value ([3]; bryostatin-1 treated) of the same molecule?
Answer: 81%

Question: What about the “induction of apoptosis in K-Ras12V versus K-Ras12V181A transformed cells” value [4] of the same molecule?
Answer: induced apoptosis to a much higher extent in cells transformed with K-Ras12V than those transformed with K-Ras12V181A

Question: What about the “FRET efficiency between YFP-K-Ras12V and CFP-Bcl-XL on treated mitochondria” value ([5]; Cos-1 cell, 5 min after bryostatin-1) of the same molecule?
Answer: 17±8%

Question: And the “colocalization of CFP-K-Ras12V with YFP-Bcl-XL on outer mitochondrial membrane” value ([5]; after stimulation with PKC agonist)?
Answer: colocalized with YFP-Bcl-XL

Question: What about the “soft agar growth induced by K-Ras12V181A” value ([6]; K-Ras12V181A) of the same molecule?
Answer: insensitive

Question: And the “K-Ras12V induced colony growth of fibroblasts in soft agar” value ([6]; K-Ras12V)?
Answer: inhibited

Question: What about the “growth of tumors established with K-Ras12V181A transformed fibroblasts” value [7] of the same molecule?
Answer: resistant

Question: And the “growth of tumors established with K-Ras12V transformed fibroblasts” value ([7]; p<0.05, ANOVA)?
Answer: sensitive

Question: And the clinical efficacy ([8]; variety of tumors)?
Answer: exhibited clinical efficacy

Question: And the toxicity [8]?
Answer: minimal toxicity

Question: With NCCCCNS(=O)(=O)c1ccc2c(Cl)cccc2c1 [W-13] as the molecule, how does the “effect of inhibitor pretreatment on stimulated K-Ras translocation” value [1] read?
Answer: had no effect

Question: Which “effect of inhibitor pretreatment on stimulated K-Ras translocation” value [1] does the source give for Cn1cc(C2=C(c3cn(CCCSC(=N)N)c4ccccc34)C(=O)NC2=O)c2ccccc21 [Ro 31-8220] here?
Answer: completely blocked

Question: Which “effect on GFP-K-Ras localization (translocation/internalization)” value ([1]; 100 nM PMA with or without 500 ng/ml ionomycin, compared with bryostatin-1) does the source give for C=C1[C@@H](O)[C@@H]2O[C@]3(CC[C@H](/C=C/[C@@H](C)[C@@H]4CC(C)=C[C@@]5(O[C@H](C[C@@](C)(O)C(=O)O)CC[C@H]5O)O4)O3)CC[C@H]2O[C@@H]1[C@@H](O)C[C@H](C)[C@H]1O[C@@]2(CCCCO2)CC[C@H]1C [okadaic acid] here?
Answer: induced partial internalization
